Data published in patent US3995044A, “Pyridine carboxylic acid amides for mycobacterium infections” (priority 1974, dated 1976).
≈ marks a conversion by molar mass, not a printed value. Like-named read-outs stand apart in the source and are kept apart here.

Legend:
Experiment in all cases: microbe, parasite or virus in culture
Type in all cases: cell-based
[1] = system: Mycobacterium tuberculosis INH TSC ETH-res.; conditions: read-out: MIC, INH TSC ETH-res.
[2] = system: Mycobacterium tuberculosis INH-TSC-res.; conditions: read-out: Minimum inhibitory concentration (on egg medium), resistant test strain INH-TSC-res.
[3] = system: Mycobacterium tuberculosis INH-res.; conditions: read-out: Minimum inhibitory concentration (on egg medium), resistant test strain INH-res.
[4] = system: Mycobacterium tuberculosis PAS-res.; conditions: read-out: MIC, PAS-res.
[5] = system: Mycobacterium tuberculosis INH-res.; conditions: read-out: MIC, INH-res.
[6] = system: Mycobacterium tuberculosis SM-res.; conditions: read-out: MIC, SM-res.
[7] = system: Mycobacterium tuberculosis CS-res.; conditions: read-out: MIC, CS-res.

Compound: O=C(NCc1ccccn1)c1cc([N+](=O)[O-])cc([N+](=O)[O-])c1 [Example 1, N-(pyrid-2-ylmethyl)-3,5-dinitrobenzoic acid amide]
- MIC [1]: 0.8 µg/mL (≈ 2.65 µM)
- MIC [2]: 1 µg/mL (≈ 3.31 µM)
- MIC [3]: 1 µg/mL (≈ 3.31 µM)
- MIC [4]: 1.6 µg/mL (≈ 5.29 µM)
- MIC [5]: 0.8 µg/mL (≈ 2.65 µM)
- MIC [6]: 1.6 µg/mL (≈ 5.29 µM)
- MIC [7]: 1.6 µg/mL (≈ 5.29 µM)

Compound: O=C(NCc1cnc2ccccc2c1)c1cc([N+](=O)[O-])cc([N+](=O)[O-])c1 [Example 9]
- MIC [1]: 0.03 µg/mL (≈ 0.0852 µM)
- MIC [2]: 2 µg/mL (≈ 5.68 µM)
- MIC [3]: 2 µg/mL (≈ 5.68 µM)
- MIC [4]: 0.4 µg/mL (≈ 1.14 µM)
- MIC [5]: 0.4 µg/mL (≈ 1.14 µM)
- MIC [6]: 0.2 µg/mL (≈ 0.568 µM)
- MIC [7]: 0.2 µg/mL (≈ 0.568 µM)

Compound: O=C(NCCc1ccccn1)c1cc([N+](=O)[O-])cc([N+](=O)[O-])c1 [Example 10]
- MIC [2]: 32 µg/mL (≈ 101 µM)
- MIC [3]: 1 µg/mL (≈ 3.16 µM)

Compound: O=C(NCc1cccnc1)c1cc([N+](=O)[O-])cc([N+](=O)[O-])c1 [Example 12]
- MIC [2]: 32 µg/mL (≈ 106 µM)
- MIC [3]: 8 µg/mL (≈ 26.5 µM)

Compound: O=C(NCc1ccncc1)c1cc([N+](=O)[O-])cc([N+](=O)[O-])c1 [Example 13]
- MIC [2]: 128 µg/mL (≈ 423 µM)
- MIC [3]: 128 µg/mL (≈ 423 µM)

Compound: Cc1cccc(CNC(=O)c2cc([N+](=O)[O-])cc([N+](=O)[O-])c2)n1 [Example 14]
- MIC [1]: 0.8 µg/mL (≈ 2.53 µM)
- MIC [4]: 1.6 µg/mL (≈ 5.06 µM)
- MIC [5]: 0.8 µg/mL (≈ 2.53 µM)
- MIC [6]: 1.6 µg/mL (≈ 5.06 µM)
- MIC [7]: 1.6 µg/mL (≈ 5.06 µM)

Compound: O=C(NCc1ccc2ccccc2n1)c1cc([N+](=O)[O-])cc([N+](=O)[O-])c1 [Example 15]
- MIC [1]: 0.05 µg/mL (≈ 0.142 µM)
- MIC [2]: 1 µg/mL (≈ 2.84 µM)
- MIC [3]: 1 µg/mL (≈ 2.84 µM)
- MIC [4]: 0.4 µg/mL (≈ 1.14 µM)
- MIC [5]: 0.1 µg/mL (≈ 0.284 µM)
- MIC [6]: 0.1 µg/mL (≈ 0.284 µM)
- MIC [7]: 0.2 µg/mL (≈ 0.568 µM)

Compound: O=C(NCC1CCCO1)c1cc([N+](=O)[O-])cc([N+](=O)[O-])c1 (stereo not shown) [Example 20]
- MIC [1]: 1.6 µg/mL (≈ 5.42 µM)
- MIC [4]: 1.6 µg/mL (≈ 5.42 µM)
- MIC [5]: 1.6 µg/mL (≈ 5.42 µM)
- MIC [6]: 1.6 µg/mL (≈ 5.42 µM)
- MIC [7]: 1.6 µg/mL (≈ 5.42 µM)

Compound: O=C(NCC1CCC=CO1)c1cc([N+](=O)[O-])cc([N+](=O)[O-])c1 (stereo not shown) [Example 22]
- MIC [1]: 0.2 µg/mL (≈ 0.651 µM)
- MIC [4]: 0.8 µg/mL (≈ 2.6 µM)
- MIC [5]: 0.1 µg/mL (≈ 0.325 µM)
- MIC [6]: 0.4 µg/mL (≈ 1.3 µM)
- MIC [7]: 0.4 µg/mL (≈ 1.3 µM)

Compound: CC(NC(=O)c1cc([N+](=O)[O-])cc([N+](=O)[O-])c1)c1ccccn1 (stereo not shown) [Example 29]
- MIC [1]: 0.8 µg/mL (≈ 2.53 µM)
- MIC [2]: 2 µg/mL (≈ 6.32 µM)
- MIC [3]: 2 µg/mL (≈ 6.32 µM)
- MIC [4]: 1.6 µg/mL (≈ 5.06 µM)
- MIC [5]: 1.6 µg/mL (≈ 5.06 µM)
- MIC [6]: 0.8 µg/mL (≈ 2.53 µM)
- MIC [7]: 1.6 µg/mL (≈ 5.06 µM)
